From patent US4581172A, “Substituted pyrimido[6,1-a]isoquinolin-4-ones,pyrimido[6,1-a]benzozepin-4-ones and pyrimido[6,1-a]benzodiazepin-4-ones useful for prevention of thromboses and treating hypertension” (Hoffmann-La Roche Inc., priority 1983, dated 1986) come the findings set out here.

The subject of data set [1] is Human platelet-rich plasma. Nature of the data set: Inhibition of collagen-initiated platelet aggregation (aggregometer method). Type of data set: cell-based. As to conditions: 10 min, human citrate plasma, 10 minutes at 37° C., aggregation initiated by collagen fibrils, hydrochlorides of the products tested, read-out: EC50 (maximum aggregation velocity). The method, then: The maximum aggregation velocity was taken as the test parameter and the effective concentration (EC50) was ascertained from dosage-activity curves. Human platelet-rich plasma was obtained by centrifugation from citrated venous blood. The experiments were carried out with suspensions of the test substances in 0.9% sodium chloride. 0.18 ml of citrate plasma was treated with a 10 μl suspension of the test compounds and the mixture was incubated at 37° C. for 10 minutes, whereupon the aggregation was initiated by the addition of 10 μl of a suspension of collagen fibrils. The following EC50 values (in μM) were ascertained for the hydrochlorides of the products of certain Examples hereinafter: […]

Data set [2] can be described thus: Acute toxicity (LD50) p.o. in mice. As to conditions: mouse, in vivo, po, hydrochloride.

One may read the EC50 as the concentration needed to bring the measured effect to its halfway point. In the case of `COc1cc2c(cc1OC)-c1cc(=Nc3c(C)cc(C)cc3C)n(C)c(=O)n1CCC2` [5(a), 10,11-dimethoxy-2-mesitylimino-3-methyl-2,3,7,8-tetrahydro-4H,6H-pyrimido[6,1-a]benzazepin-4-one], the EC50 in data set [1] amounted to 120 nM.
Still for that read-out and setting: then `COc1cc2c(cc1OC)-c1cc(=Nc3c(C)cc(C)cc3C)n(C)c(=O)n1C(C)C2` (centres unmarked) [4(a), 9,10-dimethoxy-3,6-dimethyl-2-mesitylimino-2,3,6,7-tetrahydro-4H-pyrimido[6,1-a]isoquinolin-4-one], with 100 nM.
As for `COc1cc2c(cc1OC)-c1cc(Nc3c(C)cc(C)cc3C)nc(=O)n1C(C)C2` (centres unmarked) [Example 2(a), 6,7-dihydro-9,10-dimethoxy-2-mesitylamino-6-methyl-4H-pyrimido[6,1-a]isoquinolin-4-one], in data set [1], the EC50 worked out at 110 nM.
For orientation: LD50 means the dose expected to kill half of the subjects tested. A lower LD50 goes with greater toxicity. Turning to `COc1cc2c(cc1OC)C(C)Cn1c-2cc(=Nc2ccccc2C)n(C)c1=O` (centres unmarked) [6a) 2.], the LD50 in data set [2] was determined as 2500 mg/kg.
As to `COc1cc2c(cc1OC)C(C)Cn1c-2cc(=Nc2c(C)cc(C)cc2C)n(C)c1=O` (centres unmarked) [Example 3, 9,10-dimethoxy-3,7-dimethyl-2-mesitylimino-2,3,6,7-tetrahydro-4H-pyrimido[6,1-a]isoquinolin-4-one], the EC50 in data set [1] turned out to be 600 nM.
